Source: patent publication US12662465B2, “EGFR inhibitors” (Blueprint Medicines Corporation, priority 2021, dated 2026)
Where two headings read alike, the source gives them in different places.

What was measured:
EGFR L858R = molecular target: T1, EGFR L858R (Homo sapiens, UniProt P00533, L858R); assay: Biochemical EGFR inhibition assay (Caliper mobility shift), EGFR L858R; conditions: read-out: Enz EGFR_L858R IC50
T1 construct: purchased SignalChem E10-122BG

EGFR (d746-750) = molecular target: T2, EGFR (d746-750) (Homo sapiens, UniProt P00533, DEL746-750); assay: Biochemical EGFR inhibition assay (Caliper mobility shift), EGFR (d746-750); conditions: read-out: Enz EGFR_Exon19-del746-750 IC50
T2 construct: purchased SignalChem E10-122JG
T2 sequence (P00533 with tags, fused parts or gaps DEL746-750 limits assumed): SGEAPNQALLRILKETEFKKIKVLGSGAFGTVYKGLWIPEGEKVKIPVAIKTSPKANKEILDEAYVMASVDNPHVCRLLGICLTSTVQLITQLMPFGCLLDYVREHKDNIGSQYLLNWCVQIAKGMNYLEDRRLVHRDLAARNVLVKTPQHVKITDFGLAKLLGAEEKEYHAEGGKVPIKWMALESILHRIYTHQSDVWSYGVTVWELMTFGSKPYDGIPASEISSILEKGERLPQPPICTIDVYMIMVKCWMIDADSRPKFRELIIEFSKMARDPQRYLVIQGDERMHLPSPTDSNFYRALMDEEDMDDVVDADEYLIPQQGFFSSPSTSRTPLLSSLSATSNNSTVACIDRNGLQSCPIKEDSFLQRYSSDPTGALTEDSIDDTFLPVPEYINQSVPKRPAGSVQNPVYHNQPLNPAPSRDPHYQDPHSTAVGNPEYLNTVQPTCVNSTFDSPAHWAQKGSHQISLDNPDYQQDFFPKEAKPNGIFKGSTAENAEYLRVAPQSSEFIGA

[1] = molecular target: intracellular phosphorylation of EGFR (Tyr1068) in PC-9 cells (Ex19Del) (Homo sapiens, UniProt P00533, DEL746-750); assay: PC-9 pEGFR AlphaLISA assay; type: cell-based; conditions: 4 hours compound incubation, read-out: Ext pEGFR_PC-9 Ex19Del IC50
Chain of intracellular phosphorylation of EGFR (Tyr1068) in PC-9 cells (Ex19Del) (P00533 with tags, fused parts or gaps DEL746-750): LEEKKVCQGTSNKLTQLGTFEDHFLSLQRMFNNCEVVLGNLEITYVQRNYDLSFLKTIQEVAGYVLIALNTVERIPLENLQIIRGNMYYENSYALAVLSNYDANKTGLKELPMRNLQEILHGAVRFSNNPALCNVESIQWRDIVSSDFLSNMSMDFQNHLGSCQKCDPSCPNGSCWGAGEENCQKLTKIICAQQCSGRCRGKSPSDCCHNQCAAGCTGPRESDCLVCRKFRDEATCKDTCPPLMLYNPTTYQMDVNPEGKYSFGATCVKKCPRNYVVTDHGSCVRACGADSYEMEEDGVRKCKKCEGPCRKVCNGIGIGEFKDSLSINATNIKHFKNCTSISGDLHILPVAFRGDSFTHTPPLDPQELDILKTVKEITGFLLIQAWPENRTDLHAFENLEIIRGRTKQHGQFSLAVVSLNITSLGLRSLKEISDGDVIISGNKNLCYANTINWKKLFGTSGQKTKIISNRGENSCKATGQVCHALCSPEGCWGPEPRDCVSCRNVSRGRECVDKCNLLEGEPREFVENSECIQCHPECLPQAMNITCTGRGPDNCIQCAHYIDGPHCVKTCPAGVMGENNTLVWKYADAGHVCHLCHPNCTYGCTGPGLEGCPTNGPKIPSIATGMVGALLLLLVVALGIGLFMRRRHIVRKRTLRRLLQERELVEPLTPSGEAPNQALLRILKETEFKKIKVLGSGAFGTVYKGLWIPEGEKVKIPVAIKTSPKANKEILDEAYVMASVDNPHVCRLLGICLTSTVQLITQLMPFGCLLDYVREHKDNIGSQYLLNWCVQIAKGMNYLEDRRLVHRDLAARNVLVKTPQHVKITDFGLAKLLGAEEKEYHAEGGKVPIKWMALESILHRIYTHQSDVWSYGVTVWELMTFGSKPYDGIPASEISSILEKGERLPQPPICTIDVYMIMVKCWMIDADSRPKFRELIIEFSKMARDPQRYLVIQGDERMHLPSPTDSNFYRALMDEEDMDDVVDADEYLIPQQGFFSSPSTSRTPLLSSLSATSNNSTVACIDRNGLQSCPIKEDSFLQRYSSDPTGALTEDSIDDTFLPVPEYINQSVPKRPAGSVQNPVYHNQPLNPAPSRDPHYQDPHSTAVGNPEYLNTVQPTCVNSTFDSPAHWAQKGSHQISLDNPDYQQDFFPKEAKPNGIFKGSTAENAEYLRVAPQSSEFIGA

[2] = 1.0 mM ATP or ATP Km, room temperature (25° C.)

T1 sequence (P00533 25-1210 L858R): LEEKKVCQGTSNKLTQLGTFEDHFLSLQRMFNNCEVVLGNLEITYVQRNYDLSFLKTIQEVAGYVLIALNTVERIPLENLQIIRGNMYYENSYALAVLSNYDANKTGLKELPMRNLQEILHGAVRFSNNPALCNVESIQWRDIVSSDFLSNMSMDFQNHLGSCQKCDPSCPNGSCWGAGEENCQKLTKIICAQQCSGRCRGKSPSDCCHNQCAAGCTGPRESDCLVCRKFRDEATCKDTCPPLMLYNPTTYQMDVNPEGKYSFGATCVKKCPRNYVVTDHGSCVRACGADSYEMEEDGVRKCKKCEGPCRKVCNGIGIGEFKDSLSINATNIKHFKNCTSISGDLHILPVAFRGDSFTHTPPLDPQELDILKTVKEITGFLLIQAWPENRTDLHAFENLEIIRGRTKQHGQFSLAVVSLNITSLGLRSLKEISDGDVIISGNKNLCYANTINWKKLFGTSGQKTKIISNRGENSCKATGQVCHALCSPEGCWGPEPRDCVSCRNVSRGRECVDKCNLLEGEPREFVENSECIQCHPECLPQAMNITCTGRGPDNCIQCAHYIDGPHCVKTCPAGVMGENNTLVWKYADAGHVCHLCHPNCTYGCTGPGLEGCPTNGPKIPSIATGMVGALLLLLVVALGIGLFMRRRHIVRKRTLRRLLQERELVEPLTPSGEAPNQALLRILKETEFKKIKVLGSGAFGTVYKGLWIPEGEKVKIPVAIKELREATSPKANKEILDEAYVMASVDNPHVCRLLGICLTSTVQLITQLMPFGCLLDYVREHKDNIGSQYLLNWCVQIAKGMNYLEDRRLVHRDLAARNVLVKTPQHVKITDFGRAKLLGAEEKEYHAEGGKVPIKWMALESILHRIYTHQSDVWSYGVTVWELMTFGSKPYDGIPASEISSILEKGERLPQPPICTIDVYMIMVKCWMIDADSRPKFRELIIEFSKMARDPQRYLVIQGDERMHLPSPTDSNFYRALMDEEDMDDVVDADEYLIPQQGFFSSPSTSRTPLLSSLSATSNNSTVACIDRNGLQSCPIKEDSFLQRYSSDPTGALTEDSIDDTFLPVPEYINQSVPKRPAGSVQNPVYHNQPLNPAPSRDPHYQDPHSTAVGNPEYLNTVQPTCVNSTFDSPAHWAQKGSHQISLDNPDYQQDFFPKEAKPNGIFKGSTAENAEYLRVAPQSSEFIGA

C[C@H](CN(C)C)Oc1cc(N2CC3CC(C2)N3)cc2ncnc(Nc3ccc4ncccc4c3F)c12 [Example 150, 7-(3,6-diazabicyclo[3.1.1]heptan-3-yl)-5-(((R)-1-(dimethylamino)propan-2-yl)oxy)-N-(5-fluoroquinolin-6-yl)quinazolin-4-amine] was tested, and the IC50 (EGFR L858R) was greater than 50.1 nM, the IC50 (EGFR (d746-750)) was greater than 50.1 nM and the IC50 [1] was greater than 50.1 nM.
Work on C[C@H](CN(C)C)Oc1cc(-c2cnn(C)c2)cc2ncnc(Nc3ccc4ncc(O)cc4c3F)c12 [Example 116, (R)-6-((5-((1-(dimethylamino)propan-2-yl)oxy)-7-(1-methyl-1H-pyrazol-4-yl)quinazolin-4-yl)amino)-5-fluoroquinolin-3-ol] yielded an IC50 (EGFR L858R) of less than 10 nM, an IC50 (EGFR (d746-750)) of less than 10 nM and an IC50 [1] greater than 50.1 nM.
For CO[C@H]1CCN(c2cc(O[C@H](C)CN(C)C)c3c(Nc4ccc5ncccc5c4F)ncnc3c2)C1 (single isomer, unassigned) [Example 87b, 5-(((R)-1-(dimethylamino)propan-2-yl)oxy)-N-(5-fluoroquinolin-6-yl)-7-((S)-3-methoxypyrrolidin-1-yl)quinazolin-4-amine or 5-(((R)-1-(dimethylamino)propan-2-yl)oxy)-N-(5-fluoroquinolin-6-yl)-7-((R)-3-methoxypyrrolidin-1-yl)quinazolin-4-amine], the IC50 (EGFR L858R; [2]) was less than 10 nM, the IC50 (EGFR (d746-750); [2]) was less than 10 nM and the IC50 [1] was no more than 10 nM.
With C[C@H](CN(C)C)Oc1cc(N2CCS(=O)(=O)CC2)cc2ncnc(Nc3ccc4ncccc4c3F)c12 [Example 81, (R)-4-(5-((1-(dimethylamino)propan-2-yl)oxy)-4-((5-fluoroquinolin-6-yl)amino)quinazolin-7-yl)thiomorpholine 1,1-dioxide] the IC50 (EGFR L858R) was greater than 50.1 nM, the IC50 (EGFR (d746-750)) was greater than 50.1 nM and the IC50 [1] was greater than 50.1 nM.
With COC1CCN(c2cc(O[C@H](C)C3COC3)c3c(Nc4ccc5ncccc5c4F)ncnc3c2)C1 (mixture of isomers) [Example 84, N-(5-fluoroquinolin-6-yl)-7-((R)-3-methoxypyrrolidin-1-yl)-5-((R)-1-(oxetan-3-yl)ethoxy)quinazolin-4-amine and N-(5-fluoroquinolin-6-yl)-7-((S)-3-methoxypyrrolidin-1-yl)-5-((R)-1-(oxetan-3-yl)ethoxy)quinazolin-4-amine] the IC50 (EGFR L858R) was less than 10 nM, the IC50 (EGFR (d746-750)) was less than 10 nM and the IC50 [1] was no more than 10 nM.
Work on C[C@H](Oc1cc(-c2cnn(C)c2)cc2ncnc(Nc3ccc4ncccc4c3F)c12)[C@@H](C)O (single isomer, unassigned) [Example 132, (2R,3S)-3-((4-((5-fluoroquinolin-6-yl)amino)-7-(1-methyl-1H-pyrazol-4-yl)quinazolin-5-yl)oxy)butan-2-ol or (2S,3R)-3-((4-((5-fluoroquinolin-6-yl)amino)-7-(1-methyl-1H-pyrazol-4-yl)quinazolin-5-yl)oxy)butan-2-ol] yielded an IC50 (EGFR L858R; [2]) of less than 10 nM, an IC50 (EGFR (d746-750); [2]) of less than 10 nM and an IC50 [1] of no more than 10 nM.
Molecule CCn1cc(-c2cc(OC3CCN(C)CC3)c3c(Nc4ccc5ncccc5c4F)ncnc3c2)c(OC)n1 [Example 117, 7-(1-ethyl-3-methoxy-1H-pyrazol-4-yl)-N-(5-fluoroquinolin-6-yl)-5-((1-methylpiperidin-4-yl)oxy)quinazolin-4-amine] has an IC50 (EGFR L858R) of 10.1 to 50 nM, an IC50 (EGFR (d746-750)) of less than 10 nM and an IC50 [1] of 10.1 to 50 nM.
Work on C[C@H](CN(C)C)Oc1cc(N2CCC3(COC3)C2)cc2ncnc(Nc3ccc4ncccc4c3F)c12 [Example 74, (R)-5-((1-(dimethylamino)propan-2-yl)oxy)-N-(5-fluoroquinolin-6-yl)-7-(2-oxa-6-azaspiro[3.4]octan-6-yl)quinazolin-4-amine] yielded an IC50 (EGFR L858R) of 10.1 to 50 nM, an IC50 (EGFR (d746-750)) of less than 10 nM and an IC50 [1] of 10.1 to 50 nM.
For C[C@H](CN(C)C)Oc1cc(-c2cnn(C)c2)cc2ncnc(Nc3ccc4ncccc4c3F)c12 (single isomer, unassigned) [Example 5, (R)-5-((1-(dimethylamino)propan-2-yl)oxy)-N-(5-fluoroquinolin-6-yl)-7-(1-methyl-1H-pyrazol-4-yl)quinazolin-4-amine or (S)-5-((1-(dimethylamino)propan-2-yl)oxy)-N-(5-fluoroquinolin-6-yl)-7-(1-methyl-1H-pyrazol-4-yl)quinazolin-4-amine], the IC50 (EGFR L858R; [2]) was less than 10 nM, the IC50 (EGFR (d746-750); [2]) was less than 10 nM and the IC50 [1] was no more than 10 nM.
Molecule Cc1ccc2c(F)c(Nc3ncnc4cc(-c5cnn(C)c5)cc(O[C@H](C)CN(C)C)c34)ccc2n1 [Example 107, (R)-5-((1-(dimethylamino)propan-2-yl)oxy)-N-(5-fluoro-2-methylquinolin-6-yl)-7-(1-methyl-1H-pyrazol-4-yl)quinazolin-4-amine] has an IC50 (EGFR L858R) of 10.1 to 50 nM, an IC50 (EGFR (d746-750)) of less than 10 nM and an IC50 [1] of 10.1 to 50 nM.
With CN1CCC(Oc2cc(-c3cnn(C)c3)cc3ncnc(Nc4ccc5ncccc5c4F)c23)CC1 [Example 50, N-(5-fluoroquinolin-6-yl)-7-(1-methyl-1H-pyrazol-4-yl)-5-((1-methylpiperidin-4-yl)oxy)quinazolin-4-amine] the IC50 (EGFR L858R) was less than 10 nM, the IC50 (EGFR (d746-750)) was less than 10 nM and the IC50 [1] was no more than 10 nM.
With C[C@@H](Oc1cc(-c2cnn(C)c2)cc2ncnc(Nc3ccc4ncccc4c3F)c12)[C@@H]1COCCN1 (single isomer, unassigned) [Example 123] the IC50 (EGFR L858R; [2]) was less than 10 nM, the IC50 (EGFR (d746-750); [2]) was less than 10 nM and the IC50 [1] was no more than 10 nM.
With C[C@H](CN(C)C)Oc1cc(N2CCOCC2)cc2ncnc(Nc3ccc4ncccc4c3F)c12 [Example 65, (R)-5-((1-(dimethylamino)propan-2-yl)oxy)-N-(5-fluoroquinolin-6-yl)-7-morpholinoquinazolin-4-amine] the IC50 (EGFR L858R) was 10.1 to 50 nM, the IC50 (EGFR (d746-750)) was less than 10 nM and the IC50 [1] was no more than 10 nM.
CO[C@H]1CCN(c2cc(O[C@H](C)C3COC3)c3c(Nc4ccc5ncccc5c4F)ncnc3c2)C1 (single isomer, unassigned) [Example 85b, N-(5-fluoroquinolin-6-yl)-7-((S)-3-methoxypyrrolidin-1-yl)-5-((R)-1-(oxetan-3-yl)ethoxy)quinazolin-4-amine or N-(5-fluoroquinolin-6-yl)-7-((R)-3-methoxypyrrolidin-1-yl)-5-((R)-1-(oxetan-3-yl)ethoxy)quinazolin-4-amine] showed an IC50 (EGFR L858R; [2]) of less than 10 nM, an IC50 (EGFR (d746-750); [2]) of less than 10 nM and an IC50 [1] of no more than 10 nM.
For C[C@H](CN(C)C)Oc1cc(-c2cnn(C)c2)cc2c1c(Nc1ccc3ncccc3c1F)nc[n+]2[O-] (single isomer, unassigned) [Example 127], the IC50 (EGFR L858R) was less than 10 nM, the IC50 (EGFR (d746-750)) was less than 10 nM and the IC50 [1] was 10.1 to 50 nM.
C[C@H](CN(C)C)Oc1cc(N2CC3(COC3)C2)cc2ncnc(Nc3ccc4ncccc4c3F)c12 [Example 71, (R)-5-((1-(dimethylamino)propan-2-yl)oxy)-N-(5-fluoroquinolin-6-yl)-7-(2-oxa-6-azaspiro[3.3]heptan-6-yl)quinazolin-4-amine] was tested, and the IC50 (EGFR L858R) was less than 10 nM, the IC50 (EGFR (d746-750)) was less than 10 nM and the IC50 [1] was no more than 10 nM.
For C[C@@H](Oc1cc(-c2cnn(CC(C)(C)O)c2)cc2ncnc(Nc3ccc4ncccc4c3F)c12)C1COC1 [Example 48, (R)-1-(4-(4-(5-fluoroquinolin-6-ylamino)-5-(1-(oxetan-3-yl)ethoxy)quinazolin-7-yl)-1H-pyrazol-1-yl)-2-methylpropan-2-ol], the IC50 (EGFR L858R) was less than 10 nM, the IC50 (EGFR (d746-750)) was less than 10 nM and the IC50 [1] was no more than 10 nM.
C[C@H](CN(C)C)Oc1cc(-c2cnn(C)c2)cc2ncnc(Nc3c(F)cc4ncccc4c3F)c12 [Example 106, (R)—N-(5,7-difluoroquinolin-6-yl)-5-((1-(dimethylamino)propan-2-yl)oxy)-7-(1-methyl-1H-pyrazol-4-yl)quinazolin-4-amine] showed an IC50 (EGFR L858R) of less than 10 nM, an IC50 (EGFR (d746-750)) of less than 10 nM and an IC50 [1] of no more than 10 nM.
Molecule C[C@H](CN(C)C)Oc1nc(N2CC[C@H](C(C)(C)O)C2)cc2ncnc(Nc3ccc4ncccc4c3F)c12 [Example 75, 2—((S)-1-(5-(((R)-1-(dimethylamino)propan-2-yl)oxy)-4-((5-fluoroquinolin-6-yl)amino)pyrido[4,3-d]pyrimidin-7-yl)pyrrolidin-3-yl)propan-2-ol] has an IC50 (EGFR L858R) of 10.1 to 50 nM, an IC50 (EGFR (d746-750)) of less than 10 nM and an IC50 [1] of 10.1 to 50 nM.
CN1CCC[C@H](Oc2cc(-c3cnn(C)c3)cc3ncnc(Nc4ccc5ncccc5c4F)c23)C1 [Example 35, (S)—N-(5-fluoroquinolin-6-yl)-7-(1-methyl-1H-pyrazol-4-yl)-5-((1-methylpiperidin-3-yl)oxy)quinazolin-4-amine] was tested, and the IC50 (EGFR L858R) was less than 10 nM, the IC50 (EGFR (d746-750)) was less than 10 nM and the IC50 [1] was no more than 10 nM.
C[C@H](CN(C)C)Oc1cc(N2CCO[C@@H](C(F)F)C2)cc2ncnc(Nc3ccc4ncccc4c3F)c12 (single isomer, unassigned) [Example 99a, 7-((S)-2-(difluoromethyl)morpholino)-5-(((R)-1-(dimethylamino)propan-2-yl)oxy)-N-(5-fluoroquinolin-6-yl) or 7-((R)-2-(difluoromethyl)morpholino)-5-(((R)-1-(dimethylamino)propan-2-yl)oxy)-N-(5-fluoroquinolin-6-yl)quinazolin-4-amine] showed an IC50 (EGFR L858R; [2]) of less than 10 nM, an IC50 (EGFR (d746-750); [2]) of less than 10 nM and an IC50 [1] of no more than 10 nM.
With CO[C@H]1CCN(c2cc3ncnc(Nc4ccc5ncccc5c4F)c3c(OC(C)CN(C)C)n2)C1 (stereo in doubt) [Example 77, 5—(((S)-1-(dimethylamino)propan-2-yl)oxy)-N-(5-fluoroquinolin-6-yl)-7-((S)-3-methoxypyrrolidin-1-yl)pyrido[4,3-d]pyrimidin-4-amine] the IC50 (EGFR L858R) was 10.1 to 50 nM, the IC50 (EGFR (d746-750)) was less than 10 nM and the IC50 [1] was 10.1 to 50 nM.
With C[C@H](CN(C)C)Oc1cc(N2CC[C@H](C(C)(C)O)C2)cc2ncnc(Nc3ccc4ncccc4c3F)c12 [Example 73, 2—((S)-1-(5-(((R)-1-(dimethylamino)propan-2-yl)oxy)-4-((5-fluoroquinolin-6-yl)amino)quinazolin-7-yl)pyrrolidin-3-yl)propan-2-ol] the IC50 (EGFR L858R) was less than 10 nM, the IC50 (EGFR (d746-750)) was less than 10 nM and the IC50 [1] was no more than 10 nM.
